Measured values as given in publication PMC6985185 (Breast cancer research and treatment, 2019).

Columns and labels:
[1] = system: TamR xenograft tumors; experiment: TamR Study 2: growth of tamoxifen-resistant xenograft tumors under oral SERDs
[2] = system: uterus; experiment: Uterine wet weight in LTED tumor bearing mice; format: in vivo, Nu:J mice; details: ovariectomized LTED tumor bearing mice, after 4 weeks of treatment at the LTED study doses

C[C@@H]1Cc2c([nH]c3ccccc23)[C@@H](c2c(F)cc(/C=C/C(=O)O)cc2F)N1CC(C)(C)F [AZD9496]
% tumor growth inhibition of TamR tumors ([1]; AZD9496 10 mg/kg po qd, day 0 of treatment): −3% | % tumor growth inhibition of TamR tumors ([1]; AZD9496 10 mg/kg po qd, day 2 of treatment): 13% | % tumor growth inhibition of TamR tumors ([1]; AZD9496 10 mg/kg po qd, day 4 of treatment): 18% | % tumor growth inhibition of TamR tumors ([1]; AZD9496 10 mg/kg po qd, day 7 of treatment): 27% | % tumor growth inhibition of TamR tumors ([1]; AZD9496 10 mg/kg po qd, day 9 of treatment): 24% | % tumor growth inhibition of TamR tumors ([1]; AZD9496 10 mg/kg po qd, day 11 of treatment): 30% | % tumor growth inhibition of TamR tumors ([1]; AZD9496 10 mg/kg po qd, day 14 of treatment): 31% | % tumor growth inhibition of TamR tumors ([1]; AZD9496 10 mg/kg po qd, day 16 of treatment): 32% | % tumor growth inhibition of TamR tumors ([1]; AZD9496 10 mg/kg po qd, day 18 of treatment): 36% | % tumor growth inhibition of TamR tumors ([1]; AZD9496 10 mg/kg po qd, day 21 of treatment): 43% | % tumor growth inhibition of TamR tumors ([1]; AZD9496 10 mg/kg po qd, day 23 of treatment): 47% | % tumor growth inhibition of TamR tumors ([1]; AZD9496 10 mg/kg po qd, day 25 of treatment): 46% | % tumor growth inhibition of TamR tumors ([1]; AZD9496 10 mg/kg po qd, day 28 of treatment): 43% | Uterine wet weight (measure of uterine stimulation) [2]: significantly increased uterine weight

N#Cc1ccc(C(c2ccc(C#N)cc2)n2cncn2)cc1 [Letrozole, letrozole]
Uterine wet weight (measure of uterine stimulation) [2]: no response of uterine weight

CC/C(=C(/c1ccc(/C=C/C(=O)O)cc1)c1ccc2[nH]ncc2c1)c1ccc(F)cc1Cl [GDC0810]
% tumor growth inhibition of TamR tumors ([1]; GDC0810 25 mg/kg po qd, day 0 of treatment): −5% | % tumor growth inhibition of TamR tumors ([1]; GDC0810 25 mg/kg po qd, day 2 of treatment): 11% | % tumor growth inhibition of TamR tumors ([1]; GDC0810 25 mg/kg po qd, day 4 of treatment): 22% | % tumor growth inhibition of TamR tumors ([1]; GDC0810 25 mg/kg po qd, day 7 of treatment): 28% | % tumor growth inhibition of TamR tumors ([1]; GDC0810 25 mg/kg po qd, day 9 of treatment): 27% | % tumor growth inhibition of TamR tumors ([1]; GDC0810 25 mg/kg po qd, day 11 of treatment): 35% | % tumor growth inhibition of TamR tumors ([1]; GDC0810 25 mg/kg po qd, day 14 of treatment): 32% | % tumor growth inhibition of TamR tumors ([1]; GDC0810 25 mg/kg po qd, day 16 of treatment): 42% | % tumor growth inhibition of TamR tumors ([1]; GDC0810 25 mg/kg po qd, day 18 of treatment): 51% | % tumor growth inhibition of TamR tumors ([1]; GDC0810 25 mg/kg po qd, day 21 of treatment): 49% | % tumor growth inhibition of TamR tumors ([1]; GDC0810 25 mg/kg po qd, day 23 of treatment): 53% | % tumor growth inhibition of TamR tumors ([1]; GDC0810 25 mg/kg po qd, day 25 of treatment): 53% | % tumor growth inhibition of TamR tumors ([1]; GDC0810 25 mg/kg po qd, day 28 of treatment): 52% | Uterine wet weight (measure of uterine stimulation) [2]: significantly increased uterine weight
